ChEMBL document CHEMBL1201862, “PubChem BioAssay data set” (2004)
Calls of active or inactive are those of the source.

Experiments:
[1] = Shn3 3'UTR reporter inhibitors, dose response, cell-based, Clone20 osteoblasts, firefly luciferase, cherry-picked (AID 624132); format: functional;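 also: firefly luciferase luminescence from reporter carrying the Shn3 3'UTR in osteoblasts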
Streptokinase A = target: T1, Streptokinase A (Streptococcus pyogenes serotype M1, UniProt P10520); experiment: S. pyogenes streptokinase expression inhibitors, potency, dose response, plasminogen activation absorbance, OD405 (AID 1914); format: functional, Streptococcus pyogenes M1 GAS;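 also: secreted streptokinase activity via plasminogen activation per viability signal from cell pellet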
T1 sequence (P10520 whole entry): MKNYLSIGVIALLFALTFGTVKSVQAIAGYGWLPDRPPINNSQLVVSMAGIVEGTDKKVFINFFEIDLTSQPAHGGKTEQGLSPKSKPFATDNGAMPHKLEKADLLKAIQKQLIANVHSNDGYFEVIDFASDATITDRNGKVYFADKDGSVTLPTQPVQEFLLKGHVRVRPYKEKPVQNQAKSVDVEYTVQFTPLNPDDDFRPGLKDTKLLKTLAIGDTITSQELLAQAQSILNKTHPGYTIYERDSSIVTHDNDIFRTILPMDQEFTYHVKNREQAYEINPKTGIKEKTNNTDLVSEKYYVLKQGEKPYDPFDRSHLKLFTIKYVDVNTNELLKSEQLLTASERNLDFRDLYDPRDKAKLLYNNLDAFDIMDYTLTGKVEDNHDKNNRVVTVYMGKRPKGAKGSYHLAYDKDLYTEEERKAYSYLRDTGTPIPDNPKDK

[2] = HepG2 cell cytotoxicity, dose response, cytotoxicity control for Shn3 inhibitor project, CellTiter-Glo, cherry-picked (AID 624134); format: functional, cell-based
[3] = target: T2, Replicative DNA helicase DnaB (Mycobacterium tuberculosis, UniProt P9WMR3); experiment: DnaB intein splicing inhibitors, dose response, biochemical, cell-free fluorescence (AID 449749); format: functional
T2 sequence (P9WMR3 whole entry): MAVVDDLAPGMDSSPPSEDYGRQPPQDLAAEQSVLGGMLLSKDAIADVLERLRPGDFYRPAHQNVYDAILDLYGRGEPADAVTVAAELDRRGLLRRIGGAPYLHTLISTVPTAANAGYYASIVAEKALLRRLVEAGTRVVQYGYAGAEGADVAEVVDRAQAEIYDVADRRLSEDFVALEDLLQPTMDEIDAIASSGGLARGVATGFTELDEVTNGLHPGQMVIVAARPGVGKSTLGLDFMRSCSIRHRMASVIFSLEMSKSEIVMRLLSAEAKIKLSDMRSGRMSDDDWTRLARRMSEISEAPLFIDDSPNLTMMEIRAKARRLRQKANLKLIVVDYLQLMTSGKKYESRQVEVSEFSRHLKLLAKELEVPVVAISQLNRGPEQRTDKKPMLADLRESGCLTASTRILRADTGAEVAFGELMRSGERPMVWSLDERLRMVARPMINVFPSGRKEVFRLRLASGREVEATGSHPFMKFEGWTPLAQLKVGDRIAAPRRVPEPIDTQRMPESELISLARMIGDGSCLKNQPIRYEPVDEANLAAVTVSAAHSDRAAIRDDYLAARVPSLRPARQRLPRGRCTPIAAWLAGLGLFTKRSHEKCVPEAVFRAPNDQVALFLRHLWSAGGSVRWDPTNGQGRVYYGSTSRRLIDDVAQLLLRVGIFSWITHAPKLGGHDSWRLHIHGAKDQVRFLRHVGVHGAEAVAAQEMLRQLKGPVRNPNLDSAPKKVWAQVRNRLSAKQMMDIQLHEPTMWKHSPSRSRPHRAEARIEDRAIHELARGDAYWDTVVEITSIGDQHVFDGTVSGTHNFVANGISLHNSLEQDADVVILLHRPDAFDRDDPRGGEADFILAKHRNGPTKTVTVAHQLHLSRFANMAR

[4] = target: Heat shock protein HSP 90-alpha (Homo sapiens, UniProt P07900); format: functional, organism-based
Streptococcus = experiment: Group A Streptococcus viability loss, dose response, counter-screen for streptokinase expression inhibitor project, luminescence, BacTiterGlo (AID 1915); format: functional, organism-based;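 also: potency for reduction of bacterial viability or growth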
[5] = C. albicans growth with fluconazole, confirmation, fluorescence, retest (AID 2467); format: functional, cell-based
[6] = HEK293T cell cytotoxicity, dose response, cytotoxicity control for HIV Vif inhibitor project, cherry-picks (AID 652208); format: functional, cell-based
[7] = target: T3, Polyadenylate-binding protein 1 (Homo sapiens, UniProt P11940); experiment: PABP1 MLLE–PAM2 binding inhibitor potency, dose response, biochemical, fluorescence polarization, FITC-PAM2 peptide (AID 602259); format: functional; conditions: read-out: IC50_Mean
T3 sequence (P11940 whole entry): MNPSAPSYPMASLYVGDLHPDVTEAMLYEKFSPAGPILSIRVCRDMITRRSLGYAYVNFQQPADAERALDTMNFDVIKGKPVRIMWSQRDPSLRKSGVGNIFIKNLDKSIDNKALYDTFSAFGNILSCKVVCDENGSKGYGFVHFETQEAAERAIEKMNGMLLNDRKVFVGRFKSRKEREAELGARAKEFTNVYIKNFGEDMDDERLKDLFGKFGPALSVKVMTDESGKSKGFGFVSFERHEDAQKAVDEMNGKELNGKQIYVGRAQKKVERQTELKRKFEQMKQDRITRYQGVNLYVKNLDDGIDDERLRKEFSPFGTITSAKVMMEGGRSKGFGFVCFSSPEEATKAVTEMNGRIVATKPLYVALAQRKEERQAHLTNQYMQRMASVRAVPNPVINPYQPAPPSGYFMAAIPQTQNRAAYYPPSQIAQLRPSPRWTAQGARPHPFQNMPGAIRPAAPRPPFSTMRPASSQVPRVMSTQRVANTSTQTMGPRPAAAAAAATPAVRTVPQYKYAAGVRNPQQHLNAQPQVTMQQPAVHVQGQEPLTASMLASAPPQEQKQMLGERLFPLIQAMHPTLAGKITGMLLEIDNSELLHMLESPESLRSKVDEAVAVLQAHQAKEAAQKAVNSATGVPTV

Protein RecA = target: T4, Protein RecA (Mycobacterium tuberculosis, UniProt P9WHJ3); experiment: Fluorescence Cell-Free Homogeneous Dose Retest to Identify Inhibitors of RecA-Intein Splicing Activity. [Related pubchem assays (depositor defined):AID2097, AID2223, AID489010, AID492950]; format: functional
T4 sequence (P9WHJ3 whole entry): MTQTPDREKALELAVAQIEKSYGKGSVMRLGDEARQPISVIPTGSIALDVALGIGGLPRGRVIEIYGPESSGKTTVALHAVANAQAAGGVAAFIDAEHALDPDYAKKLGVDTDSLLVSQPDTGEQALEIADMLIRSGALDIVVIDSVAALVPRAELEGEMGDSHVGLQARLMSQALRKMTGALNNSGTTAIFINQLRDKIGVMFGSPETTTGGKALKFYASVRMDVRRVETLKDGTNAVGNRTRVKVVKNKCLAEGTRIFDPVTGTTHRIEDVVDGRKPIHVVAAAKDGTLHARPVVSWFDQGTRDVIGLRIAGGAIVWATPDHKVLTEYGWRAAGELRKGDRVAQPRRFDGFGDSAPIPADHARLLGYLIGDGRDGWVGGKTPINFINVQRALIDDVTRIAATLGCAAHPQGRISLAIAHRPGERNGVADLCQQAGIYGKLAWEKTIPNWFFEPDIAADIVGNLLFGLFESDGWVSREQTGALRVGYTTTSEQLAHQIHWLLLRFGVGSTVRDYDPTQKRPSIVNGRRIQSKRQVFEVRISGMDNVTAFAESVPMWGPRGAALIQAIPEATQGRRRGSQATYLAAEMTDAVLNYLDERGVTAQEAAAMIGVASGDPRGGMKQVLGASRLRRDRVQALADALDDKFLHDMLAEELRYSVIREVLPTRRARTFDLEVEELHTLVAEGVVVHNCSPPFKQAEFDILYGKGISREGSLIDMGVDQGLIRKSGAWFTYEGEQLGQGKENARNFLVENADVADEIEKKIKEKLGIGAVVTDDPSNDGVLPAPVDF

[8] = NIH-3T3 fibroblast cytotoxicity, dose response, cytotoxicity control, cell-based, fluorescence, Alamar Blue, secondary assay (AID 2327); format: functional;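 also: NIH-3T3 mouse fibroblasts cultured with fluconazole at 8 µg/mL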
[9] = control 3'UTR Renilla luciferase suppression, dose response, counter-screen for Shn3 inhibitor project, cell-based, Clone20-Shn3RL, cherry-picked (AID 624133); format: functional
[10] = target: T3, Polyadenylate-binding protein 1; experiment: PABP1 MLLE–PAM2 interaction inhibitors, dose response, miRNA deadenylation inhibitor project, biochemical, fluorescence polarization, Cy5-PAM2 peptide, secondary (AID 602260); format: functional; conditions: read-out: IC50_Mean
[11] = system: Streptococcus sp. 'group A'; experiment: growth inhibition of control SK(-) GAS strain, dose response, counter-screen for streptokinase expression inhibitor project, luminescence, kanamycin, BacTiterGlo, confirmation (AID 1900); format: functional, organism-based
[12] = target: T5, Short transient receptor potential channel 4 (Mus musculus, UniProt Q9QUQ5); experiment: mouse TRPC4 channel activators, dose response, cell-based, HEK293 TRPC4/mu-opioid, Fluo-4 calcium (AID 434937); format: functional
T5 sequence (Q9QUQ5 whole entry): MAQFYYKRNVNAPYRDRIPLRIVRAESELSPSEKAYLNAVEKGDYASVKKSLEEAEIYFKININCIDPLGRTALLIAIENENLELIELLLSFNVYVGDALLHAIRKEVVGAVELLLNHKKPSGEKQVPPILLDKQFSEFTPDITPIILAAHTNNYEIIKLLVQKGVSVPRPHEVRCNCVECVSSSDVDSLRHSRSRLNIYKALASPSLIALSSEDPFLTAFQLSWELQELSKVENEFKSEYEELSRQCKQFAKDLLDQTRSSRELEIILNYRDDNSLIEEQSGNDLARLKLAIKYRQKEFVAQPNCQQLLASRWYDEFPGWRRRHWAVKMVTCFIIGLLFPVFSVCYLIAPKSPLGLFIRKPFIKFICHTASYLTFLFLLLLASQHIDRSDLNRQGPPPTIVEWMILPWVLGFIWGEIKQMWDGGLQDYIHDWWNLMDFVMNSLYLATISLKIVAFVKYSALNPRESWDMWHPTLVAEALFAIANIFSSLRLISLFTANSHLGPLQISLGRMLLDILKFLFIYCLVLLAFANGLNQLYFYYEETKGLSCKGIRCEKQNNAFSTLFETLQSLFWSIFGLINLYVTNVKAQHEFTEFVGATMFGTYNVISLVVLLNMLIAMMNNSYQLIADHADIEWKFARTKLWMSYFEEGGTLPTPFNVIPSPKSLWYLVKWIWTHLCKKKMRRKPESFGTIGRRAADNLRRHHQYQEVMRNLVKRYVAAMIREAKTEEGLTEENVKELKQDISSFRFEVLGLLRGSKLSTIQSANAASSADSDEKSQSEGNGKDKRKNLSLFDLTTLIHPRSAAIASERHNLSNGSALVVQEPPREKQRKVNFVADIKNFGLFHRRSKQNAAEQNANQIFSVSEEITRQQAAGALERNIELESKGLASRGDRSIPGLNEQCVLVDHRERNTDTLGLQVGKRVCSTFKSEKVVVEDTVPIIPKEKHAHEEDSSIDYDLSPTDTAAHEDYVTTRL

Albumin = Albumin (Bos taurus, UniProt P02769); experiment: Counterscreen for inhibitors of T-cell receptor (TCR)-CD3 interaction: Fluorescence-based biochemical high throughput dose response assay to identify inhibitors of T-cell receptor (TCR)-CD3 interaction using a TAMRA-labeled BSA probe.; format: functional
Chain of Albumin (P02769 whole entry): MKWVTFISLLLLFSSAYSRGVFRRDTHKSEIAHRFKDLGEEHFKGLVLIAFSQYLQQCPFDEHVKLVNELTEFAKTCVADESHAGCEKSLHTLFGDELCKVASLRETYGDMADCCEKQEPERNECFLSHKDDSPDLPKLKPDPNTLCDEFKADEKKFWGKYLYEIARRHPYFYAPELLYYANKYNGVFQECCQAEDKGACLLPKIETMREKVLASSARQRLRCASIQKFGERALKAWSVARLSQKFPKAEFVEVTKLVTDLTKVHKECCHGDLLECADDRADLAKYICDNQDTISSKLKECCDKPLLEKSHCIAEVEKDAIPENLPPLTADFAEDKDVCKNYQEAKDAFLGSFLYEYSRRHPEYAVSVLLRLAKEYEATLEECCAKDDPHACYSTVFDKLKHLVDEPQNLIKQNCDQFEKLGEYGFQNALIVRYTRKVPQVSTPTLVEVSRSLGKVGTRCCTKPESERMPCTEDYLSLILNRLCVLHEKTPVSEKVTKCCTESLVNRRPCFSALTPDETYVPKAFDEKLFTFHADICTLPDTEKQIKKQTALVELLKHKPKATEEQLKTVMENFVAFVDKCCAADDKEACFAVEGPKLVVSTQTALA

[13] = target: T6, Heat shock factor protein 1 (Mus musculus, UniProt P38532); experiment: inhibition of MG132-induced HSE-luciferase signal, confirmation, cell-based, NIH3T3, luminescence, dose retest (AID 2382); format: functional;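 also: NIH3T3 fibroblasts with HSF1-driven luciferase reporter stressed by proteasome inhibitor MG132; luminescence from HSF1-driven luciferase expression after 8 hours of MG132 stress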
T6 sequence (P38532 whole entry): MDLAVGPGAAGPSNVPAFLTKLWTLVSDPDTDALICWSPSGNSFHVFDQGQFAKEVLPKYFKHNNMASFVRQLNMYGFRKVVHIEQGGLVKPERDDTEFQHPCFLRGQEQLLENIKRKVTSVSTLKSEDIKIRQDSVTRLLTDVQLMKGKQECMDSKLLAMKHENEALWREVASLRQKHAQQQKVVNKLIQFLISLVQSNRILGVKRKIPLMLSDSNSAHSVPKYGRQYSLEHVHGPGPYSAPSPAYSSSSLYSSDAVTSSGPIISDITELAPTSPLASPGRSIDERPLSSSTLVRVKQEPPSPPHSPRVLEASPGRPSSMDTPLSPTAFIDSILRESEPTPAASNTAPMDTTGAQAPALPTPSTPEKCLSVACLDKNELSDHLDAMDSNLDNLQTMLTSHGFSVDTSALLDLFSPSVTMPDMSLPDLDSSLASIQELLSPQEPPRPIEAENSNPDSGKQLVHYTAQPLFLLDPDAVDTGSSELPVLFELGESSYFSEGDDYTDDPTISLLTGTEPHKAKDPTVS

HEK293 [14] = experiment: cells; conditions: Homo sapiens
HEK293 [15] = experiment: cells; conditions: Homo sapiens; remark: listed apart in the source
[16] = growth suppression of PTEN-null colon cells, dose response, cell-based, HCT116 PTEN knockout (AID 1047); format: functional;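 also: HCT116 colon tumor cells with PTEN knocked out; cells exposed to compound for 60 hours before readout; potency for loss of cell viability measured by luminescence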
[17] = target: Induced myeloid leukemia cell differentiation protein Mcl-1 (Homo sapiens, UniProt Q07820); format: functional
Chain of Induced myeloid leukemia cell differentiation protein Mcl-1 (Q07820 whole entry): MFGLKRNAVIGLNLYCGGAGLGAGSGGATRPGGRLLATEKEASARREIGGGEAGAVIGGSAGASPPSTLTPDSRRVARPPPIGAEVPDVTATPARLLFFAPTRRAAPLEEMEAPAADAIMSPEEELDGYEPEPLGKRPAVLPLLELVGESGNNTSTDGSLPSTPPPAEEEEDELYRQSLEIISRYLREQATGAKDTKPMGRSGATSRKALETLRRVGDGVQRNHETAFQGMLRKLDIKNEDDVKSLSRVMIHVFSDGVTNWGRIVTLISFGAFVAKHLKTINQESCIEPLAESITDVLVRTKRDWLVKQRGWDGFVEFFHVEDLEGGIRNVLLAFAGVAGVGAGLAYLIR

[18] = growth suppression of beta-catenin-knockout colon cells, dose response, cell-based, HCT116, human colon tumor (AID 1045); format: functional;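 also: HCT116 colon tumor cells with beta catenin knocked out; cells exposed to compound for 60 hours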

Cc1ccc(C(c2cc(Cl)c3cccnc3c2O)N2CCN(C)CC2)cc1 (stereo not drawn)
AC50 [1]: 5.54 µM (active)
EC50 (Streptokinase A): > 150 µM (not active)
AC50 [2]: 35.2 µM (active)
AC50 [3]: > 380 µM (inactive)
AC50 [4]: 1.59 µM (active)
EC50 (Streptococcus): 15.3 µM (active)
EC50 [5]: 374 nM (active)
AC50 [6]: > 52 µM (inactive)
IC50 [7]: > 66 µM (inactive)
EC50 (Protein RecA): 1.96 µM (active)
EC50 [8]: 3.84 µM (inconclusive)
AC50 [9]: 16.4 µM (active)
IC50 [10]: > 66 µM (inactive)
EC50 [11]: 1.49 µM (active)

COc1ccc(C(=O)NNC(=S)NC(=O)c2cccs2)cc1
EC50 (Streptokinase A): > 150 µM (not active)
EC50 (Streptococcus): 15.1 µM (active)
EC50 [12]: 10.6 µM (active)
IC50 (Albumin): > 94 µM (inactive)
EC50 [13]: > 195 µM (not active)
EC50 [11]: 3.71 µM (active)

COc1ccc(NC(=O)Cn2ncc(Cl)c(Cl)c2=O)cc1S(=O)(=O)N1CCOCC1
EC50 (HEK293 [14]): > 59.6 µM (inactive)
EC50 (HEK293 [15]): > 59.6 µM (inactive)
EC50 [16]: 7.27 µM (active)
AC50 [3]: 44.2 µM (active)
AC50 [6]: 10.8 µM (active)
EC50 (Protein RecA): 10.1 µM (active)
IC50 [17]: 6.5 µM (active)
EC50 [18]: 5.71 µM (active)
